From PMC6931124, “NPY1R-targeted peptide-mediated delivery of a dual PPARα/γ agonist to adipocytes enhances adipogenesis and prevents diabetes progression” (Molecular Metabolism, 2019)

What was measured:
[1] = system: LDL receptor-deficient mice; conditions: ref [94]; cited from earlier work
Rectal body temperature = format: in vivo; conditions: db/db mice, 2.5 μM/kg/day, 8 days
Protocol: (§1) All of the experiments were performed according to the animal ethical laws of the state Saxony, Germany, and were approved by the local animal ethics review board (Landesdirektion Sachsen, Leipzig, Germany). Female db/db mice 12–15 weeks of age were purchased from Taconic (Denmark) and housed in groups of 5 in temperature- and humidity-controlled facilities in a 12 h:12 h light–dark cycle and had free access to tap water and food (regular chow, Sniff, Soest, Germany). Three out of seven groups served as controls (N = 15, see Table 1). The 5 db/db mice were untreated and 10 db/db mice were vehicle treated either orally or intraperitoneally (i.p.). […]
All of the mice were monitored for 9 days during the treatment period. Body weight, food intake, and water uptake were recorded daily and body composition (lean body mass and whole body fat mass) was recorded at the beginning, middle, and end of the study in the conscious mice using an EchoMRI system (Echo Medical Systems, Houston, TX, USA). At the beginning and end of the treatment period, the HbA1c levels were determined from 5 μl of whole venous blood samples using an automated chemical analyzer at the Institute of Laboratory Medicine and Clinical Chemistry and beta-ketone using an automated glucose monitor (FreeStyle Precision H, Abbott GmbH, Ludwigshafen, Germany). […]

ob/ob mice = conditions: free systemically administered tesa; ref [43]; cited from earlier work
Serum leptin = format: in vivo; conditions: db/db mice, 2.5 μmol/kg/day, 8 days; ELISA; n = 5
Protocol: as §1, with “(i.p.). One additional group (n = 5) of lean C57BL/6NTac mice was used as a metabolically healthy control group.” for “(i.p.).”
(§2) Serum insulin (mouse insulin ELISA, Mercodia, Uppsala, Sweden), adiponectin (mouse adiponectin ELISA, AdipoGen, San Diego, CA, USA), leptin (mouse leptin ELISA, Crystal Chem, Downers Grove, IL, USA), and Mcp-1 (mouse/rat CCL2/JE/Mcp-1 Quantikine ELISA, R&D Systems, Minneapolis, MN, USA) levels were analyzed via ELISA according to the manufacturer's instructions. Serum concentrations of TG, FFA, and cholesterol were measured by an automatic chemical analyzer at the Institute of Laboratory Medicine and Clinical Chemistry.

SGBS cells = experiment: qRT-PCR of adipocyte-marker genes, SGBS; format: cell-based, human; conditions: qPCR, vs DMSO; n ≥ 3
Protocol: The 3T3-L1 or SGBS cells were seeded into 6-well plates and differentiated as previously described. Tesa or peptides were added to the differentiation medium at a concentration of 100 μM on day 2, followed by 12 h or 24 h incubation. On day 4, the cells were washed two times with PBS, harvested by trypsinization, and stored at −70 °C until RNA isolation was performed. […] N ≥ 3 independent experiments with two replicates were performed. For the cell culture experiments, the data were analyzed according to the 2^−ΔΔCt method using 36B4 or GAPDH as housekeeping genes and DMSO treatment as a control. Liver mRNA expression was calculated relative to 18sRNA, which was used as an internal control due to its resistance to glucose-dependent regulation. The mRNA levels were quantified using the standard curve method of QuantStudio 6 Flex software (Applied Biosystems, Foster City, CA, USA), determining the crossing points of the individual samples using an algorithm that identifies the first turning point of the fluorescence curve. Amplification of the specific transcripts was confirmed by the melting curve profiles (cooling the sample to 68 °C and heating slowly to 95 °C while measuring the fluorescence) at the end of each PCR [53].
(A, B) Cells were differentiated and stimulated according to the protocol depicted for 3T3-L1 (A) and for SGBS (B). […] Bars represent mean ± SEM from n = 3 independent experiments performed in quadruplicates. Measurements were normalized using DMSO (vehicle)-treated cells (set to 100%). Statistical significances refer to vehicle-treated cells. (E,F) Expression of adipocyte-enriched genes in 3T3-L1 (E) or SGBS (F) adipocytes analyzed by qPCR. Values represent mean ± SEM from n ≥ 3 independent experiments performed in duplicates. […] Statistical significances refer to DMSO-treated cells and were determined by one-way analysis of variance (ANOVA) followed by Dunnett's multiple comparison test, *≤0.05, **p ≤ 0.01, ***p ≤ 0.001.

Serum adiponectin = format: in vivo; conditions: db/db mice, 2.5 μmol/kg/day, 8 days; ELISA; n = 5
Protocol: as §1, with “(i.p.). One additional group (n = 5) of lean C57BL/6NTac mice was used as a metabolically healthy control group.” for “(i.p.).”
as §2

3T3-L1 preadipocytes = experiment: AdipoRed adipogenesis assay, 3T3-L1; format: cell-based, murine; conditions: 24 h; tesa 10/25/100 μM, tesa-NPY 100 μM; AdipoRed fluorescence, DMSO = 100%; n = 3 in quadruplicate
Protocol: 3T3-L1 or SGBS cells were seeded into 96-well plates and grown to complete confluency (set as day 0). On day 2 of confluence, the 3T3-L1 cells were differentiated by DMEM High Glucose Medium supplemented with 10% (v/v) not-heat inactivated FCS, 0.5 mM IBMX, 167 nM human insulin, and 1 μM dexamethasone (differentiation medium). On day 4, the medium was replaced by insulin medium (DMEM High Glucose Medium, 10% not-heat inactivated FCS, and 167 nM human insulin). On day 6, the medium was changed to standard culture medium and changed every other day until full differentiation was achieved (on day 8). The SGBS cells were differentiated as previously described. […] On day 4, the medium was replaced by 3FC medium (DMEM High Glucose Medium and Hams F12 (1:1 (v/v))) without FCS and supplemented with 0.01 mg human apo-transferrin, 20 nM human insulin, triiodo-L-thyronine, and 100 nM hydrocortisone. The medium was changed every second day until full differentiation was achieved (day 10). […]
(A, B) Cells were differentiated and stimulated according to the protocol depicted for 3T3-L1 (A) and for SGBS (B). […] (E,F) Expression of adipocyte-enriched genes in 3T3-L1 (E) or SGBS (F) adipocytes analyzed by qPCR. […] Statistical significances refer to DMSO-treated cells and were determined by one-way analysis of variance (ANOVA) followed by Dunnett's multiple comparison test, *≤0.05, **p ≤ 0.01, ***p ≤ 0.001.

[2] = system: subcutaneous and epigonadal adipose tissue; experiment: Adipose tissue histology and adipocyte size; format: in vivo; conditions: db/db mice, 2.5 μmol/kg/day, 8 days; H&E, epigonadal and subcutaneous AT
Protocol: All of the experiments were performed according to the animal ethical laws of the state Saxony, Germany, and were approved by the local animal ethics review board (Landesdirektion Sachsen, Leipzig, Germany). Female db/db mice 12–15 weeks of age were purchased from Taconic (Denmark) and housed in groups of 5 in temperature- and humidity-controlled facilities in a 12 h:12 h light–dark cycle and had free access to tap water and food (regular chow, Sniff, Soest, Germany). Three out of seven groups served as controls (N = 15, see Table 1). The 5 db/db mice were untreated and 10 db/db mice were vehicle treated either orally or intraperitoneally (i.p.). One additional group (n = 5) of lean C57BL/6NTac mice was used as a metabolically healthy control group. Groups 1 to 5 were treated daily with 2.5 μmol/kg body weight tesa, peptides or vehicle (1% (v/v) DMSO in PBS) either by gavage or intraperitoneal injection for 8 days according to Table 1. The control mice were gavaged with an equal volume of vehicle.

In the case of `CCO[C@@H](Cc1ccc(OCCc2ccc(OS(C)(=O)=O)cc2)cc1)C(=O)O` [tesa, tesaglitazar], the “atherosclerosis in LDL receptor-deficient mice” value [1] is given as “reduces atherosclerosis in LDL receptor-deficient mice”, the “body temperature, in words” value (Rectal body temperature) is given as “normalized” and the “anti-diabetic effect in ob/ob mice” value (ob/ob mice) is given as “reduce hypertriglyceridemia, hyperinsulinemia, and hyperglycemia in ob/ob mice”. The serum leptin concentration (Serum leptin) was “no significant effect”, the “Cidec expression, SGBS” value (SGBS cells) was “enhanced the expression of adiponectin, Fabp4, and Cidec” and the “Fabp4 expression, SGBS” value (SGBS cells) was “only Fabp4 induction by tesa reached significant differences”. The “adiponectin expression, SGBS” value (SGBS cells) was “enhanced the expression of adiponectin, Fabp4, and Cidec”, the “adiponectin, serum” value (Serum adiponectin) was “normalization of the plasma concentration” and the “adipogenesis (triglyceride content), 3T3-L1” value (3T3-L1 preadipocytes) was “enhanced adipogenesis in both cell lines”. For the same molecule, the adipocyte size [2] was “trend toward smaller adipocyte size”.
